Data on 13 molecules can be found in patent US5175183A, “Lipoxygenase inhibiting compounds” (Abbott Laboratories, priority 1991, dated 1992).

For assay [1], the target named is T1, 5-lipoxygenase (Rattus norvegicus, UniProt P12527).
T1 construct: 20,000×g supernatant from homogenized RBL-1 cells; endogenous in cells; host or cells: RBL-1 cells (20,000×g supernatant of homogenate)
T1 sequence (P12527 1-673): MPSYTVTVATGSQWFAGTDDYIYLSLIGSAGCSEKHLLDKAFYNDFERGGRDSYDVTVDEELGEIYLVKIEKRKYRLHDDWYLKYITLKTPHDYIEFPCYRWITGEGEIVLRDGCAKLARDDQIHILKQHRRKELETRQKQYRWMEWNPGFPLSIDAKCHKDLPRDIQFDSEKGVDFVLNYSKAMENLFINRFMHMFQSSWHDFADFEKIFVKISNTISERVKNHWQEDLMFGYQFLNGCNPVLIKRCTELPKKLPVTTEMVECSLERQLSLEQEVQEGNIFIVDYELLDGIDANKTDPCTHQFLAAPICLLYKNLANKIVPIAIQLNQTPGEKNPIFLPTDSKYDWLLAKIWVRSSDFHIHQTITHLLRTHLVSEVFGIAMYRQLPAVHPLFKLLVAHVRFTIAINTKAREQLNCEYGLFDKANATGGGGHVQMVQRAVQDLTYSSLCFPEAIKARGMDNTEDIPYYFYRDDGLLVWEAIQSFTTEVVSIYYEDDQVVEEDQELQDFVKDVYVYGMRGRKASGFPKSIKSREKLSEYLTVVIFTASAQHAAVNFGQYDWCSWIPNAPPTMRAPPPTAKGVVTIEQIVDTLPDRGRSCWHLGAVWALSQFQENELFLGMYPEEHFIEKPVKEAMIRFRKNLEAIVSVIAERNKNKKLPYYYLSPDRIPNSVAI
The assay can be described thus: In Vitro 5-lipoxygenase Inhibitory Activity (20,000×g supernatant from homogenized RBL-1 cells). The assay is classed as biochemical. The conditions noted are these: read-out: IC50 (concentration of compound producing 50% enzyme inhibition). Here is the method:
The compounds of this invention are potent inhibitors of 5-lipoxygenase. Their activity was determined using the 20,000×g supernatant from homogenized RBL-1 cells in a similar manner as that described by Dyer and coworkers (Dyer, R. D.; Haviv, F.; Hanel, A. M.; Bornemier, D. A.; Carter, G. W. Fed. Proc., Fed. Am. Soc. Exp. Biol. 1984, 43, 1462A). IC50 values (concentration of compound producing 50% enzyme inhibition) were calculated by linear regression analysius of percentage inhibition versus log inhibitor concentration plots.

Assay [2] deals with Leukotriene Biosynthesis. Kind of assay: In Vivo Inhibition of Leukotriene Biosynthesis (rat peritoneal anaphylaxis model). The conditions noted are these: oral gavage 200 μmol/kg one hour prior to antigen challenge, peritoneal fluid leukotrienes 15 minutes after challenge, vs mean of control group. As to the method: Inhibition of the biosynthesis of leukotrienes in vivo after oral administration of compound was determined using a rat peritoneal anaphylaxis model. In this model rats were injected intraperitoneally (ip) with rabbit antibody to bovine serum albumin (BSA) and three hours later injected ip with BSA to induce an antigen-antibody response. Rats were sacrificed 15 minutes after this challenge and the peritoneal fluids were collected and analyzed for leukotriene levels. Test compound was administered by oral gavage one hour prior to the antigen challenge. Percent inhibition values were determined by comparing the treatment group to the mean of the control group.

As to `CC(NC(=O)NO)c1cc2ccccc2o1` (stereo not shown) [Example 7, N'-hydroxy-N-[(1-benzofuran-2-yl)ethyl]urea], in assay [1], the IC50 was 12.7 µM.

As for `CCCCOc1ccc(C(C)NC(=O)NO)cc1` (stereo not shown) [Example 3, N'-hydroxy-N-[1-(4-butoxyphenyl)ethyl]urea], in assay [1], the IC50 stood at 3.8 µM.

`Cc1cc(C(C)NC(=O)NO)c(C)s1` (stereo not shown) [Example 9, N'-hydroxy-N-[1-(2,5-dimethylthien-3-yl)ethyl]urea]: in assay [1], the IC50 worked out at 8.4 µM.

Regarding `O=C(NCc1ccsc1)N(O)CCO` [Example 12, N'-hydroxy-N'-(2-hydroxyethyl)-N-[(thien-3-yl)-methyl]urea], the IC50 in assay [1] was 13 µM. The “Percent Inhibition With 200 μmol/kg oral dose” value in assay [2] was determined as 79%.

With `CC(NC(=O)N(C)O)c1cc2ccccc2o1` (stereo not shown) [Example 10, N'-hydroxy-N'-methyl-N-[(1-benzofur-2-yl)-ethyl]urea], in assay [1], the IC50 was found to be 0.27 µM. Moreover, the “Percent Inhibition With 200 μmol/kg oral dose” value in assay [2] was found to be 50%.

For `CN(O)C(=O)NCc1ccsc1` [Example 8, N'-hydroxy-N'-methyl-N-[(thienyl-3-yl)methyl]urea], in assay [1], the IC50 amounted to 4 µM. Moreover, in assay [2], the “Percent Inhibition With 200 μmol/kg oral dose” value was determined as 92%.

In the case of `O=C(NO)N[C@@H]1C[C@H]1c1ccccc1` (relative stereo) [Example 11, N'-hydroxy-N-1-(trans-2-phenylcyclopropyl)urea], the IC50 in assay [1] is 28 µM.

With `Cc1cc(C(C)NC(=O)N(C)O)c(C)s1` (stereo not shown) [Example 13, N'-hydroxy-N'-methyl-N-[1-(2,5-dimethylthien 3-yl)ethyl]urea], the IC50 in assay [1] was determined as 0.5 µM. In addition, in assay [2], the “Percent Inhibition With 200 μmol/kg oral dose” value is given as 49%.

On to `CC(NC(=O)NO)c1ccc2ccccc2c1` (stereo not shown) [Example 4, N'-hydroxy-N-[(1-naphth-2-yl)ethyl]urea], for which the IC50 in assay [1] stood at 4.6 µM.

For `CN(O)C(=O)NCc1cccs1` [Example 6, N'-hydroxy-N'-methyl-N-[(thien-2-yl)methyl]urea], the IC50 in assay [1] was found to be 3.6 µM. The “Percent Inhibition With 200 μmol/kg oral dose” value in assay [2] is given as 67%.

Consider “N'-hydroxy-N'methoxy-N-[(1-naphth-2-yl)ethyl]urea [Example 5]”, for which the IC50 in assay [1] was found to be 27 µM.

Regarding `CC(NC(=O)N(C)O)c1ccc(OCc2ccccc2)cc1` (stereo not shown) [Example 2, N'-hydroxy-N'-methyl-N-[1-(4-phenylmethoxyphenyl)ethyl]urea], the IC50 in assay [1] was found to be 0.3 µM. Further, the “Percent Inhibition With 200 μmol/kg oral dose” value in assay [2] stood at 86%.

Turning to `CC(NC(=O)NO)c1ccc(OCc2ccccc2)cc1` (stereo not shown) [Example 1, N'-hydroxy-N-[1-(phenylmethoxyphenyl)ethyl]urea], in assay [1], the IC50 turned out to be 1.2 µM.
